From patent publication US20240150377A1, “MODULATORS OF CYSTIC FIBROSIS TRANSMEMBRANE CONDUCTANCE REGULATOR” (VERTEX PHARMACEUTICALS INCORPORATED, priority 2020, published 2024)
Read-outs that look alike come from different tables or passages of the source. One block for each compound: values may come before it.

Biological target: T1, CFTR (Homo sapiens, UniProt P13569, DEL508-508)
T1 construct: endogenous in cells; host or cells: primary human bronchial epithelial cells from CF subjects (F508del/MF-HBE), differentiated at air-liquid interface
T1 sequence (P13569 with tags, fused parts or gaps DEL508-508): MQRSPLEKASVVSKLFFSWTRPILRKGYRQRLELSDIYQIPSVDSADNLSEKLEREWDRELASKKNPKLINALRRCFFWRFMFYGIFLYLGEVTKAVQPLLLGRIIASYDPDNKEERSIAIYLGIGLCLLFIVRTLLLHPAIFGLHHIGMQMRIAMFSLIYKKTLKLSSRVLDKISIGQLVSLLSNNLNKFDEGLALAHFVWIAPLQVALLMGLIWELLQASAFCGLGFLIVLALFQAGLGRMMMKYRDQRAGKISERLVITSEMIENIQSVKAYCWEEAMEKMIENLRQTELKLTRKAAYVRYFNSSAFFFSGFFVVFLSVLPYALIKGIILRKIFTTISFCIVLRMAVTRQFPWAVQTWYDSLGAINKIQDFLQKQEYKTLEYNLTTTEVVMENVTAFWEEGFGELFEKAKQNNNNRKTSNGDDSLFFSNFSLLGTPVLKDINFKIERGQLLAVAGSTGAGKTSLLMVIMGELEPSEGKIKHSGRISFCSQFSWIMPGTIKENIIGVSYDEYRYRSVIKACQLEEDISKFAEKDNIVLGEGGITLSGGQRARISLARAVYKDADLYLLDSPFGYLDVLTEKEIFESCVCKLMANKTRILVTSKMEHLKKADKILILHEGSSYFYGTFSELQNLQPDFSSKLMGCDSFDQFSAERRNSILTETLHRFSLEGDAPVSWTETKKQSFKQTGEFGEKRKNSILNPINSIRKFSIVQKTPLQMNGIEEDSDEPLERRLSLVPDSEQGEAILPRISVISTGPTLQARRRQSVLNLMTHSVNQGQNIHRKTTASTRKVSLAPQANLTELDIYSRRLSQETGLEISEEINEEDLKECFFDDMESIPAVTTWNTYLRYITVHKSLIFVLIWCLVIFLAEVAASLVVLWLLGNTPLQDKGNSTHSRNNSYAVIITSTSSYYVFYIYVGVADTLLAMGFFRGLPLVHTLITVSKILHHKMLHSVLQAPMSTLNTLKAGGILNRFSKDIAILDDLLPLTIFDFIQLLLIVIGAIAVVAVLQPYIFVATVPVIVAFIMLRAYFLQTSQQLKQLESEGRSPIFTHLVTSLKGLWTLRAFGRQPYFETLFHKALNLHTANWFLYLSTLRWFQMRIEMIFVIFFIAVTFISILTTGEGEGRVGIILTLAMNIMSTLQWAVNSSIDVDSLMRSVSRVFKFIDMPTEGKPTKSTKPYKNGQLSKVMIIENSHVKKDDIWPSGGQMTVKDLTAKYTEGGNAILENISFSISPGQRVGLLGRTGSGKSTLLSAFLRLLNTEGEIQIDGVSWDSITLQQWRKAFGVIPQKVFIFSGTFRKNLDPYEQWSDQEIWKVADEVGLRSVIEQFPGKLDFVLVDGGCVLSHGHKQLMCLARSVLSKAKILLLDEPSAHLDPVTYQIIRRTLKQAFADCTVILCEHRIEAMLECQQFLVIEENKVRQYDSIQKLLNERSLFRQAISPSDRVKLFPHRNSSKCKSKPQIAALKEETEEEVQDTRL
Assay: HBE assay: Ussing chamber assay of CFTR-mediated short-circuit currents
Type: cell-based
Procedure, shortened: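 CFTR-mediated Isc (μA/cm²) equals the peak response to apical 20 μM forskolin minus the residual after a 20 μM each BPO/GlyH-101/CFTR inhibitor 172 cocktail, recorded in Ussing chambers at Vhold 0 mV, 37 °C, pH 7.4, with 30 μM apical amiloride. Cells were F508del/MF HBE cultures preincubated 18-24 h with corrector (concentration range or 10 μM) plus 1 μM ivacaftor in 20% human serum.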

[1] = HBE assay, read-out: HBE Max activity (%)
[2] = Table 10, read-out: HBE Max activity (%)
[3] = Table 10, at 10 μM, read-out: HBE activity at 10 (μM) (%)
[4] = Table 12, read-out: HBE Max Activity (%)
[5] = Table 13, read-out: HBE Max Activity (%)
[6] = HBE assay, 10 μM, read-out: HBE Activity at 10 μM (%)
[7] = Table 13, at 10 μM, read-out: HBE Activity at 10 μM (%)
[8] = Table 11, read-out: HBE Max Activity (%)
[9] = Table 12, at 10 μM, read-out: HBE Activity at 10 μM (%)

- EC50 (HBE assay, read-out: HBE EC50): < 1 µM
- Emax [1]: > 60%
SMILES: Cc1cccc(C)c1-c1cc2nc(n1)NS(=O)(=O)c1cccc(c1)C(=O)N(Cc1nc(N(C)C3CC4(CC4)C3)ccc1F)[C@H](CC(C)(C)C)CO2 [Compound 1300, (11R)-6-(2,6-Dimethylphenyl)-11-(2,2-dimethylpropyl)-12-[[3-fluoro-6-[methyl(spiro[2.3]hexan-5-yl)amino]-2-pyridyl]methyl]-2,2-dioxo-9-oxa-2λ^6-thia-3,5,12,19-tetrazatricyclo[12.3.1.14,8]nonadeca-1(18),4(19),5,7,14,16-hexaen-13-one]

- activation at 10 µM [3]: > 60%
- EC50 (Table 10, read-out: HBE EC50): < 1 µM
- Emax [2]: > 60%
SMILES: Cc1cccc(C)c1-c1cc2nc(n1)NS(=O)(=O)c1cccc(c1)C(=O)N(Cc1ncccc1CCC(C)(C)ON)[C@H](CC(C)(C)C)CO2 [Compound 771]

- EC50 (HBE assay, read-out: HBE EC50): < 1 µM
- Emax [1]: > 60%
SMILES: Cc1cccc(C)c1-c1cc2nc(n1)NS(=O)(=O)c1cccc(c1)C(=O)N(Cc1cccc(N3CCOC[C@@H]3C)n1)[C@H](CC(C)(C)C)CO2 (stereo in doubt) [Compound 1400]

- EC50 (Table 12, read-out: HBE EC50): < 1 µM
- Emax [4]: > 60%
SMILES: Cc1cccc(C)c1-c1cc2nc(n1)NS(=O)(=O)c1cccc(c1)C(=O)N(Cc1ncc(N3CC4CCC3C4)cn1)[C@H](CC(C)(C)C)CO2 (stereo partly shown) [Compound 874]

- activation at 10 µM [6]: > 60%
SMILES: Cc1cccc(C)c1-c1cc2nc(n1)NS(=O)(=O)c1cccc(c1)C(=O)N(Cc1ncc(N3CC(C)(C)C3)cn1)[C@H](CCC(C)(C)C)CO2 [Compound 1525]

- activation at 10 µM [3]: > 60%
SMILES: Cc1cccc(C)c1-c1cc2nc(n1)NS(=O)(=O)c1cccc(c1)C1Oc3nc4ccccc4cc3CN1[C@H](CC(C)(C)C)CO2 (stereo partly shown) [Compound 755]

- EC50 (Table 12, read-out: HBE EC50): < 1 µM
- Emax [4]: > 60%
SMILES: Cc1cccc(C)c1-c1cc2nc(n1)NS(=O)(=O)c1cccc(c1)C(=O)N(Cc1cccc(/C=C/C(C)(C)C)n1)[C@H](CC(C)(C)C)CO2 [Compound 588]

- EC50 (HBE assay, read-out: HBE EC50): < 1 µM
- Emax [1]: > 60%
SMILES: Cc1cccc(C)c1-c1cc2nc(n1)NS(=O)(=O)c1cccc(c1)C(=O)N(Cc1cccc(N(C)CC3(C)CC3)n1)[C@H](CC(C)(C)C)CO2 [Compound 1354]

- EC50 (Table 12, read-out: HBE EC50): < 1 µM
- Emax [4]: > 60%
SMILES: Cc1cccc(C)c1-c1cc2nc(n1)NS(=O)(=O)c1cccc(c1)C(=O)N(Cc1ccc(C3CCCCO3)cn1)[C@H](CC(C)(C)C)CO2 (stereo partly shown) [Compound 707]

- activation at 10 µM [3]: > 60%
SMILES: Cc1cccc(C)c1-c1cc2nc(n1)NS(=O)(=O)c1cccc(c1)C(=O)N(Cc1cn(C)nc1C)[C@H](CC(C)(C)C)CO2 [Compound 822]

- EC50 (Table 13, read-out: HBE EC50): < 1 µM
- Emax [5]: > 60%
SMILES: Cc1cccc(C)c1-c1cc2nc(n1)NS(=O)(=O)c1cccc(n1)C(=O)N(Cc1cccc(N(C)C3CC4(CC4)C3)n1)[C@H](CC(C)(C)C)CO2 [Compound 1143]

- EC50 (Table 11, read-out: HBE EC50): 1 to 3 µM
- Emax [8]: > 60%
SMILES: COC1CCN(c2cnc(CN3C(=O)c4cccc(c4)S(=O)(=O)Nc4nc(cc(-c5c(C)cccc5C)n4)OC[C@H]3CC(C)(C)C)nc2)C1 (stereo partly shown) [Compound 599]

- activation at 10 µM [9]: > 600%
SMILES: Cc1cccc(C)c1-c1cc2nc(n1)NS(=O)(=O)c1cccc(c1)C(=O)N(Cc1ncc(OC(=O)OC(C)(C)C)cn1)[C@H](CC(C)(C)C)CO2 [Compound 557]

- EC50 (Table 11, read-out: HBE EC50): < 1 µM
- Emax [8]: > 60%
SMILES: Cc1cccc(C)c1-c1cc2nc(n1)NS(=O)(=O)c1cccc(c1)C(=O)N(Cc1cnc(N(C)CC(C)(C)C)cn1)[C@H](CC(C)(C)C)CO2 [Compound 899]

- EC50 (Table 12, read-out: HBE EC50): < 1 µM
SMILES: Cc1cccc(C)c1-c1cc2nc(n1)NS(=O)(=O)c1cccc(c1)C(=O)N(Cc1ncc(N3CC4CC3CO4)cn1)[C@H](CC(C)(C)C)CO2 (stereo partly shown) [Compound 546]

- activation at 10 µM [3]: > 60%
SMILES: Cc1cccc(C)c1-c1cc2nc(n1)NS(=O)(=O)c1cccc(c1)C1Oc3ccc4cccnc4c3CN1[C@H](CC(C)(C)C)CO2 (stereo partly shown) [Compound 751]

- activation at 10 µM [9]: > 600%
SMILES: Cc1cccc(C)c1-c1cc2nc(n1)NS(=O)(=O)c1cccc(c1)C(=O)N(Cc1ncc(N3CCC(C)(O)C3)cn1)[C@H](CC(C)(C)C)CO2 (stereo partly shown) [Compound 553]

- activation at 10 µM [6]: > 60%
- EC50 (HBE assay, read-out: HBE EC50): < 1 µM
- Emax [1]: > 60%
SMILES: Cc1cc(C2COCCO2)cnc1CN1C(=O)c2cccc(c2)S(=O)(=O)Nc2nc(cc(-c3c(C)cccc3C)n2)OC[C@H]1CC(C)(C)C (stereo partly shown) [Compound 1436]

- EC50 (Table 11, read-out: HBE EC50): < 1 µM
- Emax [8]: > 60%
SMILES: Cc1cccc(C)c1-c1cc2nc(n1)NS(=O)(=O)c1cccc(c1)C(=O)N(Cc1cc(N3CCCCC3)ccn1)[C@H](CC(C)(C)C)CO2 [Compound 888]

- EC50 (Table 11, read-out: HBE EC50): < 1 µM
- Emax [8]: > 60%
SMILES: Cc1cccc(C)c1-c1cc2nc(n1)NS(=O)(=O)c1cccc(c1)C(=O)N(Cc1cccc(C3CCC(C)(C)CC3)n1)[C@H](CC(C)(C)C)CO2 [Compound 727]

Second part, the compound before the results:

SMILES: Cc1cc(N(C)C)cnc1CN1C(=O)c2cccc(c2)S(=O)(=O)Nc2nc(cc(-c3c(C)cccc3C)n2)OC[C@H]1CC(C)(C)C [Compound 494]
- EC50 (Table 10, read-out: HBE EC50): < 1 µM
- Emax [2]: > 60%

SMILES: Cc1cccc(C)c1-c1cc2nc(n1)NS(=O)(=O)c1cccc(c1)C(=O)N(Cc1cncc(N(C)C34CC(C3)C4)n1)[C@H](CC(C)(C)C)CO2 [Compound 443]
- EC50 (Table 12, read-out: HBE EC50): < 1 µM
- Emax [4]: > 60%

SMILES: Cc1cccc(C)c1-c1cc2nc(n1)NS(=O)(=O)c1cccc(c1)C(=O)N(Cc1cnn(C(C)(C)C)c1)[C@H](CC(C)(C)C)CO2 [Compound 481]
- Emax [2]: > 60%

SMILES: Cc1cccc(C)c1-c1cc2nc(n1)NS(=O)(=O)c1cccc(c1)C(=O)N(Cc1ncc(C3CC4(CCC4)C3)cn1)[C@H](CC(C)(C)C)CO2 [Compound 160]
- EC50 (Table 13, read-out: HBE EC50): < 1 µM
- Emax [5]: > 60%

SMILES: Cc1cccc(C)c1-c1cc2nc(n1)NS(=O)(=O)c1cccc(c1)C(=O)N(Cc1ncc(N3[C@H](C)CC[C@@H]3C)cn1)[C@H](CC(C)(C)C)CO2 [Compound 535]
- activation at 10 µM [7]: > 600%
- EC50 (Table 13, read-out: HBE EC50): < 1 µM
- Emax [5]: > 60%

SMILES: Cc1cccc(C)c1-c1cc2nc(n1)NS(=O)(=O)c1cccc(c1)C(=O)N(Cc1ccc(N3CC(=O)NC3=O)cc1)[C@H](CC(C)(C)C)CO2 [Compound 146, 1-[4-[[(11R)-6-(2,6-Dimethylphenyl)-11-(2,2-dimethylpropyl)-2,2,13-trioxo-9-oxa-2λ^6-thia-3,5,12,19-tetrazatricyclo[12.3.1.14,8]nonadeca-1(18),4(19),5,7,14,16-hexaen-12-yl]methyl]phenyl]imidazolidine-2,4-dione]
- EC50 (Table 10, read-out: HBE EC50): 1 to 3 µM
- Emax [2]: > 60%

SMILES: Cc1cccc(C)c1-c1cc2nc(n1)NS(=O)(=O)c1cccc(c1)C(=O)N(Cc1ccc(C(C)(C)C)cc1O)[C@H](CC(C)(C)C)CO2 [Compound 433]
- activation at 10 µM [7]: > 600%

SMILES: Cc1cccc(C)c1-c1cc2nc(n1)NS(=O)(=O)c1cccc(c1)C(=O)N(Cc1ncc(N3C4CCC3CC4)cn1)[C@H](CC(C)(C)C)CO2 [Compound 554]
- EC50 (HBE EC50 (μM), Table 12): < 1 µM
- Emax [4]: > 60%

SMILES: Cc1cccc(C)c1-c1cc2nc(n1)NS(=O)(=O)c1cccc(c1)C(=O)N(Cc1ncc(C(C)(C)C)s1)[C@H](CC(C)(C)C)CO2 [Compound 174]
- activation at 10 µM [9]: > 600%

SMILES: Cc1cccc(C)c1-c1cc2nc(n1)NS(=O)(=O)c1cccc(c1)C(=O)N(Cc1cc3n(n1)CCCO3)[C@H](CC(C)(C)C)CO2 [Compound 456]
- activation at 10 µM [9]: > 600%

SMILES: COCCCNc1cccc(CN2C(=O)c3cccc(c3)S(=O)(=O)Nc3nc(cc(-c4c(C)cccc4C)n3)OC[C@H]2CC(C)(C)C)n1 [Compound 472]
- activation at 10 µM [3]: > 60%
- Emax [2]: > 60%

SMILES: CCC(=O)CN1C(=O)c2cccc(c2)S(=O)(=O)Nc2nc(cc(-c3c(C)cccc3C)n2)OC[C@H]1CC(C)(C)C [Compound 259]
- activation at 10 µM [7]: > 600%

SMILES: Cc1cccc(C)c1-c1cc2nc(n1)NS(=O)(=O)c1cccc(c1)C(=O)N(CC(=O)N1C[C@H](C)O[C@@H](C)C1)[C@H](CC(C)(C)C)CO2 [Compound 185]
- activation at 10 µM [7]: > 600%

SMILES: Cc1cccc(C)c1-c1cc2nc(n1)NS(=O)(=O)c1cccc(c1)C(=O)N(CCc1ccc(C3CCCCC3)cn1)[C@H](CC(C)(C)C)CO2 [Compound 112, (11R)-12-[2-(5-Cyclohexyl-2-pyridyl)ethyl]-6-(2,6-dimethylphenyl)-11-(2,2-dimethylpropyl)-2,2-dioxo-9-oxa-2λ^6-thia-3,5,12,19-tetrazatricyclo[12.3.1.14,8]nonadeca-1(18),4(19),5,7,14,16-hexaen-13-one]
- EC50 (Table 11, read-out: HBE EC50): < 1 µM
- Emax [8]: > 60%

SMILES: Cc1cccc(C)c1-c1cc2nc(n1)NS(=O)(=O)c1cccc(c1)C(=O)N(CC(=O)N(C)C1CCOCC1)[C@H](CC(C)(C)C)CO2 [Compound 182]
- activation at 10 µM [7]: > 600%

SMILES: COCCN(C)c1cccc(CN2C(=O)c3cccc(c3)S(=O)(=O)Nc3nc(cc(-c4c(C)cccc4C)n3)OC[C@H]2CC(C)(C)C)n1 [Compound 488]
- EC50 (Table 10, read-out: HBE EC50): < 1 µM
- Emax [2]: > 60%

SMILES: Cc1cnc(CN2C(=O)c3cccc(c3)S(=O)(=O)Nc3nc(cc(-c4c(C)cccc4C)n3)OC[C@H]2CC(C)(C)C)nc1N(C)C1CCCC1 [Compound 329]
- activation at 10 µM [9]: > 600%

SMILES: Cc1cccc(C)c1-c1cc2nc(n1)NS(=O)(=O)c1cccc(c1)C(=O)N(Cc1ccc(C#CC(C)(C)CO)cn1)[C@H](CC(C)(C)C)CO2 [Compound 250]
- EC50 (Table 12, read-out: HBE EC50): < 1 µM
- Emax [4]: > 60%

SMILES: Cc1cccc(C)c1-c1cc2nc(n1)NS(=O)(=O)c1cccc(c1)C(=O)N(Cc1cccc(N3CCC34CCC(C)(C)C4)n1)[C@H](CC(C)(C)C)CO2 (stereo partly shown) [Compound 531]
- EC50 (Table 13, read-out: HBE EC50): < 1 µM
- Emax [5]: > 60%

SMILES: Cc1cccc(C)c1-c1cc2nc(n1)NS(=O)(=O)c1cccc(c1)C(=O)N(CC(=O)NCc1cnccn1)[C@H](CC(C)(C)C)CO2 [Compound 216]
- activation at 10 µM [9]: > 600%
